PubChem BioAssay AID2739 (Broad Institute, 2010)
Inconclusive results are not listed. Calls of active or inactive are those of the source.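 Rule for the calls: active = IC50 no more than tenfold above the highest tested concentration; inconclusive = flat fit with activity between 30% and 70%, or an invalid poor fit; inactive = IC50 beyond tenfold over the top concentration.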

Biological target: Zinc finger protein mex-5 (Caenorhabditis elegans) (UniProt Q9XUB2)
Experiment: inhibitors of MEX-5 RNA binding, dose response, biochemical, fluorescence polarization, MBP-MEX-5, FITC-TCR2 RNA (AID 2739)
Settings: MBP-MEX-5 / FITC-TCR2 RNA fluorescence polarization, 1 h

Chain of Zinc finger protein mex-5 (Caenorhabditis elegans) (Q9XUB2 whole entry, looked up): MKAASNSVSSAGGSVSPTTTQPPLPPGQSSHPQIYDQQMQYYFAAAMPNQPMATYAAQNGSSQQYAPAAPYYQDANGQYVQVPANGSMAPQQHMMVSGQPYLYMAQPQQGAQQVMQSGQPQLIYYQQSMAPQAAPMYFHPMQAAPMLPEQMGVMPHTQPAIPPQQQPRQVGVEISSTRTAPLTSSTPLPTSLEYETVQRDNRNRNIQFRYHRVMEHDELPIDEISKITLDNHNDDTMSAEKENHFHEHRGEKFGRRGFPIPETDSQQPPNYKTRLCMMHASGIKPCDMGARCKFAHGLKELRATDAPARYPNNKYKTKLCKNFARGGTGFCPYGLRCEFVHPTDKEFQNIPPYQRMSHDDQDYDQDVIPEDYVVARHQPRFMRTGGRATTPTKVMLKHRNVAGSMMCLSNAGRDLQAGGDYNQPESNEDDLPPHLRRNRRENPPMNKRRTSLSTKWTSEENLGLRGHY

| Compound | IC50 |
| --- | --- |
| Cc1nc(N=Nc2ccc(O)cc2)n[nH]1 | 16100 nM |
| O=C(NNC(=O)c1ccccc1[N+](=O)[O-])c1csc(N2CCOCC2)n1 | 1310 nM |
| CCOCCCNC(=O)CCC(=O)NNc1nc2ccccc2c2nc(C)nn12 | 2280 nM |
| COCCCNC(=O)CCC(=O)NNc1nc2ccccc2c2nc(C)nn12 | 1640 nM |
| COCCNC(=O)CCC(=O)NNc1nc2ccccc2c2nc(C)nn12 | 1490 nM |
| NC(CO)C(=O)NNCc1ccc(O)c(O)c1O (stereo not drawn) | > 135000 nM (inactive) |
| N=c1c(C(=O)NC2CCCCC2)cc2c(=O)n3ccccc3nc2n1Cc1ccc(F)cc1 | > 135000 nM (inactive) |
| Cc1cnc(C(=O)NNC(=O)c2ccc(Br)cc2)cn1 | 1080 nM |
| CCc1ccccc1N1C(=O)/C(=C\c2ccc(N3CCN(C)CC3)o2)C(=O)NC1=S | > 135000 nM (inactive) |
| CCN(CC)c1ccc(/C=C2\C(=O)NC(=S)N(C)C2=O)o1 | > 135000 nM (inactive) |
| CCOC(=O)c1cc(CC)sc1/N=C/c1c(O)[nH]c(=S)[nH]c1=O | > 350000 nM (inactive) |
| N=c1c(C(=O)NC2CCCCC2)cc2c(=O)n3ccccc3nc2n1Cc1cccnc1 | > 350000 nM (inactive) |
| COc1ccc(-c2cn[nH]c2-c2ccc(OCC(=O)NN)cc2O)cc1OC | 1580 nM |
| CCOC(=O)C1CCN(C(=O)CCC(=O)NNc2nc3ccccc3c3nc(C)nn23)CC1 | 2390 nM |
| CCc1ccc(C(=O)NNC(=O)c2ccc(=O)n(C)n2)cc1 | 9250 nM |
| CCCCN(C)C(=O)CCC(=O)NNc1nc2ccccc2c2nc(C)nn12 | 4170 nM |
| CCN(CC)c1ccc(/C=C2\C(=O)NC(=S)N(c3ccc(OC)cc3OC)C2=O)o1 | > 135000 nM (inactive) |
| Cc1nc2ccccc2c(=O)n1/N=C/c1ccc(O)c(O)c1O | 924 nM |
| O=c1c(O)cccc2cc(O)c(O)c(O)c12 | 2030 nM |
| Cc1ncc(CO)c(/C=N/NC(=O)c2cc(Br)ccc2O)c1O | 7890 nM |
| Cn1ncc2c(NNC(=O)Cc3ccccc3)ncnc21 | 1310 nM |
| CC1=C(C(=O)OCc2ccccc2)C(c2ccccc2[N+](=O)[O-])NC(=O)N1C (stereo not drawn) | 32400 nM |
| Cc1ccc(N2C(=O)NC(=O)/C(=C\c3cc(C)n(-c4ccc(C(=O)O)cc4)c3C)C2=O)cc1 | > 135000 nM (inactive) |
